In general, pIC50 refers to the negative decadic logarithm of the IC50, by convention in mol/L.

This is an account of results in patent publication EP2322149A1, “Methods and compositions for the treatment of ischemia” (Universidad del Pais Vasco, priority 2009, dated 2011).

One experiment concerns Pannexin hemichannels. The note with it: cited from earlier work.
The next experiment has as its system optic nerves. The experiment can be described thus: Optic nerve ischaemia (OGD), tissue damage by LDH release. Details: species or system rats. How it is done: After 1h OGD at 37°C, the medium was replaced with fresh solution containing glucose and equilibrated with 95% O2, 5% CO2 and the nerves were incubated for another 2h at 37°C to simulate reperfusion.
A general note: LDH leaks from cells whose membrane has failed.

Experiment [1] concerns AMPA and kainate receptors. The experiment is described as follows: Glutamate receptor agonist (AMPA, kainate) induced oligodendrocyte death (calcein fluorescence). Particulars: AMPA (100 µM) + cyclothiazide (100 µM), or kainate (3 mM) + GYKI 53655 (50 µM); PPADS 100 µM, BBG 50 nM. In kind it is cell-based, Sprague-Dawley rats. How it is done: (§1) Primary cultures of oligodendrocytes derived from optic nerves of 12 day-old Sprague-Dawley rats were obtained as previously described (Matute et al., 1997 Proc Natl Acad Sci U S A 94:8830-8835.).Cells were maintained at 37°C and 5% CO2 in a chemically defined medium (Matute et al., 1997 Proc Natl Acad Sci U S A 94:8830-8835.). After 2-4 days in vitro, cultures were composed of at least 98% 04/Ga1C^+ cells. No microglial cells were detected in these cultures. […] Cell death was determined 24h later using calcein-AM (Invitrogen) as previously described (Matute et al., 1997 Proc Natl Acad Sci U S A 94:8830-8835.). Antagonists were present during in vitro ischaemia and during the next 24h incubation period. […] Calcein was used to quantify the number of cells within the reading field. Fluorescence was measured as above and values were plotted as the percentage of DCFDA/calcein red-orange fluorescence versus control. The changes in mitochondrial membrane potential were monitored with 5,5',6,6'-tetrachloro-1,1',3,3'-tetraethylbenzimidazolcarbocyanine iodide (JC-1; Molecular Probes). […] The changes in the membrane potential were calculated as the red (emission at 590)/green (emission at 520) ratio in each condition and results were normalized to control.

In experiment [2] the test system is optic nerve oligodendrocytes. The experiment can be described thus: Mitochondrial membrane potential (JC-1) after OGD in oligodendrocyte cultures. Type of experiment: cell-based, Sprague-Dawley rats. The note with it: 1 h OGD; BBG 50 nM, PPADS 100 µM. The protocol: as §1
Experiment [3] concerns optic nerve. The note with it: 60 min after 1 h OGD; BBG 50 nM, o-ATP 1 mM.
Experiment [4] has as its system optic nerve oligodendrocytes. The experiment can be described thus: Whole-cell recording of ischaemic inward current in cultured oligodendrocytes (chemical ischaemia). In kind it is cell-based, Sprague-Dawley rats. How it is done: After 2-4 days in vitro, cultures were composed of at least 98% 04/Ga1C^+ cells. No microglial cells were detected in these cultures. […] Cell death was determined 24h later using calcein-AM (Invitrogen) as previously described (Matute et al., 1997 Proc Natl Acad Sci U S A 94:8830-8835.). Antagonists were present during in vitro ischaemia and during the next 24h incubation period. […] Calcein was used to quantify the number of cells within the reading field. Fluorescence was measured as above and values were plotted as the percentage of DCFDA/calcein red-orange fluorescence versus control. […] Molecular Probes). […] The changes in the membrane potential were calculated as the red (emission at 590)/green (emission at 520) ratio in each condition and results were normalized to control. Whole cell recordings were performed at room temperature and at a holding membrane potential of -70 mV. Extracellular bath solution with a pH of 7.3 contained (in mM): […] Patch clamp pipettes (3-5 MΩ) were filled with internal solution at a pH of 7.3 containing (in mM): CsCI 140, CaC12 2, MgC12 2, HEPES 10, EGTA 11, Na-ATP 2. For electrophysiology monitoring, ischaemia was induced chemically by using the glycolytic blocker iodoacetate (1 mM) and the oxidative phosphorylation inhibitor antimycin (2.5 μM), and omitting glucose because recordings were performed in an open chamber where O2 can diffuse to the cells (Káradóttir et al., 2005). Recordings of ATP currents were performed in divalent cation-free extracellular solutions, obtained by omitting Ca^2+ and Mg^2+, to potentiate P2X-mediated responses (Matute et al., 1997 Proc Natl Acad Sci U S A 94:8830-8835.). […] Molecular Probes, Inc., Eugene, OR) in culture medium for 30 min at 37 °C. Experiments were carried out in a coverslip chamber continuously perfused with a buffer containing 20 mM HEPES, 2 mM CaC12, 10 mM glucose in HBSS at 1 ml/min. The perfusion chamber was mounted on the stage of a Zeiss inverted epifluorescence microscope (Axiovert 35), equipped with a 150 W xenon lamp Polychrome IV (TILL Photonics GMBH) and a Plan Neofluar 40x oil immersion objective (Zeiss, Germany). Cells were visualized with a high resolution digital B/W CCD camera (ORCA; Hamamatsu Photonics Iberica, Barcelona, Spain) and image acquisition and data analysis were carried out using the AquaCosmos software program (Hamamatsu Photonics Iberica). Images were acquired every 30 ms at 37°C and ischaemia was induced as above. […] At the end of the assay, in situ calibration was carried out with the successive addition of […] and 2M Tris/50 mM EGTA, pH 8.5. Data were analyzed with Excel and Prism software.

In experiment [5] the test system is optic nerve oligodendrocytes. The experiment is described as follows: Reactive oxygen species (DCFDA) after OGD in oligodendrocyte cultures. In kind it is cell-based, Sprague-Dawley rats. Particulars: 1 h OGD; BBG 50 nM, PPADS 100 µM. How it is done: as §1
The next experiment addresses T1, P2X3 (Homo sapiens, UniProt P56373).
T1 sequence (P56373 1-397): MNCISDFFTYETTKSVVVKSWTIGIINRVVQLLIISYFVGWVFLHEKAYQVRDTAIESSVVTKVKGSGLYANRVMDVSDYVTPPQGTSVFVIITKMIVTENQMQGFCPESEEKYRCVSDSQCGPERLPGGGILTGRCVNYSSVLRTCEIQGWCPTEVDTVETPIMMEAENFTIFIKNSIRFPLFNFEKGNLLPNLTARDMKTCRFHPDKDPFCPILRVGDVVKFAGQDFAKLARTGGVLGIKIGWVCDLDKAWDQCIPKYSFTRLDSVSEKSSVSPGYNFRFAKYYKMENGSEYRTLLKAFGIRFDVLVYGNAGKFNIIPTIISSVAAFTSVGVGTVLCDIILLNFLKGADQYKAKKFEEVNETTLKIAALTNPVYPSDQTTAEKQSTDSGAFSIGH
The note with it: read-out: IC50 P2X3; cited from earlier work.

In experiment [6] the test system is optic nerve oligodendrocytes. The experiment can be described thus: Oxygen and glucose deprivation (OGD) cell death in oligodendrocyte cultures (calcein-AM). Particulars: 1h OGD, calcein 24h later; PPADS 100 µM, BBG 50 nM, CNQX 30 µM, APV 100 µM, apyrase 20 U/ml, ARL67156 100 µM, CBX 20 µM, FFA 100 µM, MFQ 1 nM. Type of experiment: cell-based, Sprague-Dawley rats.

The target of a further experiment is T2, P2X4 (Homo sapiens, UniProt Q99571).
T2 sequence (Q99571 1-388): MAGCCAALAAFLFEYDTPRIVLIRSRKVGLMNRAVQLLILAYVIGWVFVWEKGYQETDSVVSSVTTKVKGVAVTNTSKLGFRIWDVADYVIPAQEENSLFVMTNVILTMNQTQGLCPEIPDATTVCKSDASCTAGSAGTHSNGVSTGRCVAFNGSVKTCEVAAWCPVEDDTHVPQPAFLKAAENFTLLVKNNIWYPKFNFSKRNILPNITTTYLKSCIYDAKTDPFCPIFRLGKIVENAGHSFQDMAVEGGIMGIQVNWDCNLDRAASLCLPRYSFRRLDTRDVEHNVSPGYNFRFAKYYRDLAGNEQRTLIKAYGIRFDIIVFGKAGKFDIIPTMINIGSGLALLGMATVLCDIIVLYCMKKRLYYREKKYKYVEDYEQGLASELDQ
Particulars: read-out: IC50 P2X4; cited from earlier work.

The subject of experiment [7] is optic nerve. The experiment can be described thus: Compound action potential of isolated optic nerves perfused with ATP. Details: species or system C57BL6 mice. Particulars: ATP 10 mM, 3h (180 min), 37°C, compared to matched controls.

Each structure is given as a SMILES string. pIC50: −log10 of the molar value. Several values for one entry are separate records, joined by “and”; a condition that tells them apart may be missing. Equal entries are not always repeated. Entries after “also recorded” stand apart in the source; their conditions may differ. Some results are limits rather than exact numbers.

In the case of `CC1(C)[C@@H](OC(=O)CCC(=O)O)CC[C@]2(C)[C@H]3C(=O)C=C4[C@@H]5C[C@@](C)(C(=O)O)CC[C@]5(C)CC[C@@]4(C)[C@]3(C)CC[C@@H]12` [Carbenoxolone disodium], the pIC50 in the experiment on Pannexin hemichannels was ~5.30.
As to `CCOc1ccc(Nc2ccc(C(=C3C=CC(=[N+](CC)Cc4cccc(S(=O)(=O)[O-])c4)C=C3C)c3ccc(N(CC)Cc4cccc(S(=O)(=O)O)c4)cc3C)cc2)cc1` [BBG, Coomassie brilliant blue G], the “ischaemia-induced damage to optic nerves (LDH release)” value with optic nerves (P28 rat optic nerves, 1h OGD + 2h reperfusion, PPADS 1 mM, BBG 50 nM, oATP 1 mM, apyrase 20 U/ml, MFQ 1 µM, CBX 100 µM, FFA 1 mM) is listed as “prevented; also recorded: reduced”. Moreover, in the experiment with optic nerves (premyelinating (P7), myelinating (P14) and mature (P28) optic nerves), the “OGD-induced damage at all developmental stages” value is listed as “decreased; also recorded: protected”. Also, the “glutamate receptor-induced oligodendrocyte death” value in experiment [1] is on record as “did not significantly inhibit”. In addition, in experiment [2], the mitochondrial depolarization result is “prevented”. For the same compound, the “recovery of axon function (CAP area) after the ischaemic insult” value with optic nerve [3] is on record as “significantly improved”. Also, the OGD-induced currents entry in experiment [4] (BBG 50 nM, CNQX (30 µM) plus APV (100 µM) applied before the onset of ischemia) was “inhibited”. Further, in experiment [4] (after washing the antagonists out, average over BBG and PPADS, n= 15), the “OGD currents after drug application versus OGD currents before drug application” value amounted to 134 ± 32%. The ischaemic inward currents entry in experiment [4] (chemical ischaemia (iodoacetate, antimycin, no glucose), -70 mV, PPADS 100 µM, oATP 1 mM, BBG 50 nM) is on record as “significantly reduced; also recorded: partial block”. For the same compound, in [5], the “generation of radical oxygen species (ROS)” value is listed as “prevented”. In addition, the pIC50 on P2X3 is < 5.00. The “OGD-induced oligodendrocyte cell death” value in [6] is given as “significantly reduced”.
As to `O=C(Nc1cccc(C(=O)Nc2ccc(S(=O)(=O)O)c3cc(S(=O)(=O)O)cc(S(=O)(=O)O)c23)c1)Nc1cccc(C(=O)Nc2ccc(S(=O)(=O)O)c3cc(S(=O)(=O)O)cc(S(=O)(=O)O)c23)c1` [NF023], the results for the pIC50 on P2X4 and at P2X3 were < 4.00 and > 4.54, respectively.
With `Nc1ncnc2c1ncn2[C@@H]1O[C@H](COP(=O)(O)OP(=O)(O)OP(=O)(O)O)[C@@H](O)[C@H]1O` [ATP], the “reduction in CAP area” value in the experiment on optic nerve [7] is 50% and 50.1 ± 10.5%.
